Where only a bound is given, the exact number is not on record here.

The values that follow come from patent publication US9440950B2, “Arginine methyltransferase inhibitors and uses thereof” (Epizyme, Inc., priority 2013, dated 2016).

The target in the test is T1, Human CARM1 (PRMT4) (Homo sapiens, UniProt Q86X55).
T1 construct: Flag-CARM1-His; made in house; host or cells: HEK 293F cells (BacMam virus, pFastBacMam)
T1 sequence (Q86X55 1-585 isoform Q86X55-1): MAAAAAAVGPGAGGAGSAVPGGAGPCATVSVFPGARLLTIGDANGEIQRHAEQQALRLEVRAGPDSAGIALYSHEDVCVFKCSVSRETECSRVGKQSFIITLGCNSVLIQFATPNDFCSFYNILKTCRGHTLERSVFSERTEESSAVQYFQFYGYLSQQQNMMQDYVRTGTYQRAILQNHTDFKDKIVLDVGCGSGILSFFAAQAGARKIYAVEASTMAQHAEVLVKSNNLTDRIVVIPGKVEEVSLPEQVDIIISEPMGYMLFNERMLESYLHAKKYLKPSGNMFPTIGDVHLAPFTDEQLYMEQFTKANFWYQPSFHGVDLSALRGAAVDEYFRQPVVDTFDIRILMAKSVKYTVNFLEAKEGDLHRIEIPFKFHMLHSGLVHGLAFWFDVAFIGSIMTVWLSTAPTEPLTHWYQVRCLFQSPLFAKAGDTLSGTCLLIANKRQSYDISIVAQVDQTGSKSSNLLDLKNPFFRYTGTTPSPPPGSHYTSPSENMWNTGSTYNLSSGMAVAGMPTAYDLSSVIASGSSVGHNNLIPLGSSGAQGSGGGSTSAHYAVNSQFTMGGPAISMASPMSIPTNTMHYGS
Description: CARM1 Biochemical Assay. Particulars: peptide substrate, 3H-SAM Flashplate assay. From the text:
S-adenosylmethionine (SAM), S-adenosylhomocysteine (SAH), bicine, Tween20, dimethylsulfoxide (DMSO), bovine skin gelatin (BSG), sodium butyrate and Tris(2-carboxyethyl)phosphine hydrochloride solution (TCEP) were purchased from Sigma-Aldrich at the highest level of purity possible. ^3H-SAM was purchase from American Radiolabeled Chemicals with a specific activity of 80 Ci/mmol. 384-well streptavidin Flashplates were purchased from PerkinElmer.
Peptide representative of human histone H3 residues 16-30 was synthesized with an N-terminal linker-affinity tag motif and a C-terminal amide cap by 21st Century Biochemicals. The peptide was purified by high-performance liquid chromatography (HPLC) to greater than 95% purity and confirmed by liquid chromatography mass spectrometry (LC-MS). The sequence was Biot-Ahx-[…]-amide and contained a monomethylated arginine at position 26 (SEQ ID NO.:14).
Human CARM1 (PRMT4) (NM_199141.1) transcript clone was amplified from an HEK 293 cDNA library, incorporating a flanking 5′ sequence encoding a FLAG tag ([…]) (SEQ ID NO.:6) fused directly to Ala 2 of CARM1 and 3′ sequence encoding a hexa His sequence ([…]) (SEQ ID NO.:15) fused directly to Ser 608. The gene sequence encoding isoform1 containing a deletion of amino acids 539-561 was amplified subsequently and subcloned into pFastBacMam (Viva Biotech).
Recombinant baculovirus were generated according to Bac-to-Bac kit instructions (Life Technologies). […] Infections were carried out at 37° C. for 48 hours, harvested by centrifugation, and stored at −80° C. for purification.
Column was washed with 500 mM NaCl in buffer A and Flag-CARM1-His was eluted with 200 ug/ml FLAG peptide in buffer A. Pooled fractions were dialyzed in 20 mM Tris, 150 mM NaCl, 5% glycerol and 1 mM DTT, pH 7.8. The purity of recovered protein was 94.
General Procedure for CARM1 Enzyme Assays on Peptide Substrates.
The assays were all performed in a buffer consisting of 20 mM Bicine (pH=7.6), 1 mM TCEP, 0.005% BSG, and 0.002% Tween 20, prepared on the day of use. Compounds in 100% DMSO (1 ul) were spotted into a polypropylene 384-well V-bottom plates (Greiner) using a Platemate Plus outfitted with a 384-channel head (Thermo Scientific). DMSO (1 ul) was added to Columns 11, 12, 23, 24, rows A-H for the maximum signal control and 1 ul of SAH, a known product and inhibitor of CARM1, was added to columns 11, 12, 23, 24, rows I-P for the minimum signal control. A cocktail (40 ul) containing the CARM1 enzyme was added by Multidrop Combi (Thermo-Fisher). The compounds were allowed to incubate with CARM1 for 30 min at room temperature, then a cocktail (10 ul) containing ^3H-SAM and peptide was added to initiate the reaction (final volume=51 ul). The final concentrations of the components were as follows: CARM1 was 0.25 nM, ^3H-SAM was 30 nM, peptide was 250 nM, SAH in the minimum signal control wells was 1 mM, and the DMSO concentration was 2%. The assays were stopped by the addition of non-radiolabeled SAM (10 ul) to a final concentration of 300 uM, which dilutes the ^3H-SAM to a level where its incorporation into the peptide substrate is no longer detectable. 50 ul of the reaction in the 384-well polypropylene plate was then transferred to a 384-well Flashplate and the biotinylated peptides were allowed to bind to the streptavidin surface for at least 1 hour before being washed once with 0.1% Tween20 in a Biotek ELx405 plate washer. The plates were then read in a PerkinElmer TopCount plate reader to measure the quantity of ^3H-labeled peptide bound to the Flashplate surface, measured as disintegrations per minute (dpm) or alternatively, referred to as counts per minute (cpm).
Where dpm=disintegrations per minute, cmpd=signal in assay well, and min and max are the respective minimum and maximum signal controls.
Where top and bottom are the normally allowed to float, but may be fixed at 100 or 0 respectively in a 3-parameter fit. […]
As usually defined, the IC50 is the concentration that gives 50% inhibition. Low readings indicate greater potency, high ones weaker potency. Regarding `Cc1cncc(-c2n[nH]cc2CN(C)CCN)c1` [Compound 6], the IC50 is ≥ 10 µM. The value for `CNCCN(C)Cc1c[nH]nc1-c1ccc(N)nc1` [Compound 3] was 3.01 to 10 µM; that for `Cc1cc(-c2n[nH]cc2CN(C)CCN)cnc1Cl` [Compound 10] was 0.101 to 1 µM. Regarding `CNCCN(C)Cc1c[nH]nc1-c1ccc(O)nc1` [Compound 2], the IC50 was ≥ 10 µM.

In turn, `CNCCN(C)Cc1c[nH]nc1-c1cccnc1` [Compound 1] returned a 50% inhibitory concentration (IC50) of 1.01 to 3 µM.

As for `CN(CCN)Cc1c[nH]nc1-c1ccncc1` [Compound 9], the IC50 lay in the range of 3.01 to 10 µM. `CN(CCN)Cc1c[nH]nc1-c1cncc(F)c1` [Compound 7] displayed an IC50 of 1.01 to 3 µM. Then `CN(CCN)Cc1c[nH]nc1-c1cncc(S(C)(=O)=O)c1` [Compound 4], with ≥ 10 µM. `CN(CCN)Cc1c[nH]nc1-c1cccnc1` [Compound 8] had an IC50 of 3.01 to 10 µM. The molecule `COc1ccc(-c2n[nH]cc2CN(C)CCN)cn1` [Compound 5] displayed an IC50 of 3.01 to 10 µM.
